The values below come from ChEMBL document CHEMBL3769333, “A mode of action study of cationic anthraquinone analogs: a new class of highly potent anticancer agents” (Medchemcomm, 2015).

Active and inactive are the calls of the source. No cut-off for these calls is given here.

The nature of data set [1]: Cytotoxicity against human NCI60 cells assessed as cell growth relative to control. In kind it is functional. Also on record: concentration or dose not given beside the values.
Data set [2] in a line: Induction of ROS level in anhydrous acetonitrile electrolyte assessed as first half wave redox potential at 2 mM using Ag/AgCl reference electrode by cyclic voltammetry. The note with it: 2000 µM. The data set is classed as physicochemical.
Data set [3] relates to Escherichia coli. Kind of data set: Induction of Escherichia coli supercoiled pUC19 DNA cleavage at 240 uM after 24 hrs by agarose gel electrophoresis.
Data set [4] in a line: Induction of ROS level in anhydrous acetonitrile electrolyte assessed as second half wave redox potential at 2 mM using Ag/AgCl reference electrode by cyclic voltammetry. In kind it is physicochemical. The note with it: 2000 µM.
The test system of data set [5] is A549. Kind of data set: Induction of apoptosis in human A549 cells assessed as apoptotic cells at 100 uM after 24 hrs by Annexin V/propidium iodide staining based flow cytometry (reference value: 7.7%). In kind it is functional.
Data set [6] concerns A549. Kind of data set: Induction of apoptosis in human A549 cells assessed as nuclear condensation at 100 uM after 24 hrs by microscopy. In kind it is functional, cell-based.
Data set [7] in a line: Growth inhibition of human […] cells assessed as reduction in cell viability after 48 hrs by MTT assay. The data set is classed as cell-based. Background: Tetrazolium dyes change colour on reduction, which living cells bring about.
For data set [8], the system named is A549. Kind of data set: Induction of apoptosis in human A549 cells assessed as increase in ROS level at 10 to 100 nM after 4 hrs by DCFH-DA staining based flow cytometry. In kind it is functional, cell-based. (A flow cytometer gives signals particle by particle.)
The subject of data set [9] is A549. Kind of data set: Induction of mitochondrial membrane potential loss in human A549 cells at 100 uM after 24 hrs by rhodamine 123 staining based flow cytometry (reference value: 1.7%). The data set is classed as functional.
Data set [10] concerns A549. Kind of data set: Reduction of glutathione level in human A549 cells at 10 uM after 48 hrs by fluorometric assay. The data set is classed as functional. Also on record: scale not given: the % may be the effect or the level left.
Data set [11] has as its system A549. Kind of data set: Cell cycle arrest in human A549 cells assessed as accumulation at sub G1 phase at 0.01 to 100 uM after 24 hrs by propidium idoide staining based flow cytometry. In kind it is functional.
Data set [12] deals with A549. Kind of data set: Cell cycle arrest in human A549 cells assessed as accumulation at G2 phase at 0.01 to 100 uM after 24 hrs by propidium idoide staining based flow cytometry. In kind it is functional.
The subject of data set [13] is A549. Kind of data set: Induction of apoptosis in human A549 cells assessed as apoptotic cells at 0.1 uM after 24 hrs by Annexin V/propidium iodide staining based flow cytometry (reference value: 7.7%). In kind it is functional.
In data set [14] the test system is A549. Kind of data set: Induction of mitochondrial membrane potential loss in human A549 cells at 10 to 100 nM after 24 hrs by rhodamine 123 staining based flow cytometry (reference value: 1.7%). In kind it is functional.
For data set [15], the system named is A549. Kind of data set: Induction of mitochondrial membrane potential loss in human A549 cells at 1 uM after 24 hrs by rhodamine 123 staining based flow cytometry (reference value: 1.7%). The data set is classed as functional.
The subject of data set [16] is A549. Kind of data set: Reduction of glutathione in human A549 cells assessed as glutathione level after 48 hrs by fluorometric assay. The data set is classed as functional, cell-based.
The subject of data set [17] is A549. Kind of data set: Reduction of glutathione level in human A549 cells at 0.1 uM after 48 hrs by fluorometric assay. In kind it is functional. Set-up: scale not given: the % may be the effect or the level left.
In data set [18] the test system is A549. Kind of data set: Cell cycle arrest in human A549 cells assessed as accumulation at S phase at 0.01 to 100 uM after 24 hrs by propidium idoide staining based flow cytometry. In kind it is functional.
For data set [19], the system named is A549. Kind of data set: Reduction of glutathione level in human A549 cells at 100 uM after 48 hrs by fluorometric assay. The data set is classed as functional. Also on record: scale not given: the % may be the effect or the level left.
Data set [20] deals with A549. Kind of data set: Induction of alteration in mitochondrial membrane potential in human A549 cells after 24 hrs by rhodamine 123 staining based flow cytometry. The data set is classed as functional, cell-based.
The subject of data set [21] is A549. Kind of data set: Reduction of glutathione level in human A549 cells at 1 uM after 48 hrs by fluorometric assay. The data set is classed as functional. Set-up: scale not given: the % may be the effect or the level left.
The subject of data set [22] is A549. Kind of data set: Induction of apoptosis in human A549 cells assessed as increase in ROS level at 10 uM after 4 hrs by DCFH-DA staining based flow cytometry relative to control. The data set is classed as functional.
The subject of data set [23] is A549. Kind of data set: Induction of apoptosis in human A549 cells assessed as apoptotic cells at 1 uM after 24 hrs by Annexin V/propidium iodide staining based flow cytometry (reference value: 7.7%). In kind it is functional.
The test system of data set [24] is A549. Kind of data set: Induction of apoptosis in human A549 cells assessed as apoptotic cells at 0.01 uM after 24 hrs by Annexin V/propidium iodide staining based flow cytometry (reference value: 7.7%). The data set is classed as functional.
Data set [25] has as its system A549. Kind of data set: Cell cycle arrest in human A549 cells assessed as accumulation at G1 phase at 0.01 to 100 uM after 24 hrs by propidium idoide staining based flow cytometry. In kind it is functional.
For data set [26], the system named is A549. Kind of data set: Induction of mitochondrial membrane potential loss in human A549 cells at 10 uM after 24 hrs by rhodamine 123 staining based flow cytometry (reference value: 1.7%). The data set is classed as functional.
Data set [27] has as its system A549. Kind of data set: Induction of apoptosis in human A549 cells assessed as apoptotic cells at 10 uM after 24 hrs by Annexin V/propidium iodide staining based flow cytometry (reference value: 7.7%). In kind it is functional.
In data set [28] the test system is A549. Kind of data set: Induction of apoptosis in human A549 cells assessed as cell shrinkage at 1 to 100 uM after 24 hrs by microscopy. The data set is classed as functional, cell-based.
Data set [29] relates to A549. Kind of data set: Growth inhibition of human A549 cells assessed as reduction in cell viability after 48 hrs by MTT assay. In kind it is functional, cell-based. The note with it: A549, 48 h.
Data set [30] has as its system A549. Kind of data set: Selectivity index, ratio of IC50 for human […] cells to IC50 for human A549 cells. The data set is classed as functional.
Data set [31] deals with A549. Kind of data set: Induction of apoptosis in human A549 cells assessed as increase in ROS level at 100 uM after 4 hrs by DCFH-DA staining based flow cytometry relative to control. The data set is classed as functional.
The test system of data set [32] is A549. Kind of data set: Induction of apoptosis in human A549 cells assessed as mitochondrial membrane damage at 100 uM after 24 hrs by microscopy. The data set is classed as functional, cell-based.
For data set [33], the system named is Escherichia coli. Kind of data set: Induction of Escherichia coli supercoiled pUC19 DNA cleavage assessed as appearance of nicked supercoiled DNA after 24 hrs by agarose gel electrophoresis in absence of transition metal complex, light irradiation or oxidative reagent.
Data set [34] can be described thus: Induction of ROS level assessed as half reduction potential using Ag/AgCl reference electrode by cyclic voltammetry. The data set is classed as physicochemical.
A short description of data set [35]: Induction of ROS level assessed as half reduction potential using saturated calomel electrode by cyclic voltammetry. The data set is classed as physicochemical.

For `COc1cc(OC)cc(-n2n[n+](C)c3c2C(=O)c2ccccc2C3=O)c1.O=S(=O)([O-])C(F)(F)F`, the Activity is on record as -27.06% in data set [1], -182.5 mV in data set [2] and -762 mV in data set [4]. Also, the outcome with Escherichia coli [3] was Active.
In the same order, the values of `C[n+]1nn(-c2ccc(F)cc2)c2c1C(=O)c1ccccc1C2=O.O=S(=O)([O-])C(F)(F)F` are 43.38%, -156.5 mV, -886 mV and “Active”.
In the same order, the values of `Cc1ccc(-n2n[n+](C)c3c2C(=O)c2ccccc2C3=O)cc1.O=S(=O)([O-])C(F)(F)F` are 11.53%, -176 mV, -881.5 mV and “Active”.
As to `COc1ccc(-n2n[n+](C)c3c2C(=O)c2ccccc2C3=O)cc1.O=S(=O)([O-])C(F)(F)F`, the Activity was 61.28% in the data set on A549 [5]; -24.7% in data set [1]; 88.05% in the data set on A549 [9]; 23.87% in the data set on A549 [10]; 11.06% in the data set with A549 [13]; 2.55% in the data set on A549 [14]. The Activity with A549 [15] is 4.1%; in the data set with A549 [16], “Dose-dependent effect”; in the data set on A549 [17], 99.35%; in the data set on A549 [19], 12.13%; in the data set on A549 [20], “Dose-dependent effect”; in the data set with A549 [21], 88.76%. Moreover, the Activity with A549 [22] is on record as 133%; in the data set on A549 [23], 11.07%; in data set [2], -182.5 mV; with A549 [24] it was 8.74%; with A549 [26] it was 51.4%; in the data set on A549 [27], 35.44%. Further, the Activity in the data set on A549 [31] was 226%; in [4], -885 mV. Also, the result in the data set with A549 [6], with A549 [28], with Escherichia coli [3] and with A549 [32] was Active. Also, the IC50 (in general, the concentration that gives 50% inhibition) in data set [7] worked out at 35 µM; in the data set with A549 [29], 4.2 µM. In addition, the result with A549 [8], with A549 [11], in the data set with A549 [12], in the data set on A549 [18] and in the data set with A549 [25] was inactive. Further, the “Ratio IC50” value in the data set on A549 [30] is 8.
Take `C[n+]1nn(-c2ccc(Cl)cc2)c2c1C(=O)c1ccccc1C2=O.O=S(=O)([O-])C(F)(F)F`: the figures for the Activity in data set [1], in data set [2] and in data set [4] were 101.7%, -148.5 mV and -842.5 mV, respectively. In addition, the outcome in the data set on Escherichia coli [3] was Active.
In the same order, the values of `C[n+]1nn(-c2ccc(C(F)(F)F)cc2)c2c1C(=O)c1ccccc1C2=O.O=S(=O)([O-])C(F)(F)F` are 58.69%, -130.5 mV, -823.5 mV and “Active”.
As for `CCCCCCCCn1n[n+](C)c2c1C(=O)c1ccccc1C2=O.O=S(=O)([O-])C(F)(F)F`, the Activity with A549 [9] is on record as 50%; in the data set on A549 [22], 108%; in the data set on A549 [26], 25%; in the data set with A549 [31] it was 177%. The IC50 in the data set with A549 [29] is 83.3 µM.
Turning to `COc1cc(-n2n[n+](C)c3c2C(=O)c2ccccc2C3=O)cc(OC)c1OC.O=S(=O)([O-])C(F)(F)F`, the Activity in data set [1] was 23.23%; in data set [2] it was -168 mV; in data set [4], -867 mV. Besides, the result in the data set with Escherichia coli [3] was Active.
As for `COc1ccc(-n2n[n+](C)c3c2C(=O)c2ccccc2C3=O)cc1OC.O=S(=O)([O-])C(F)(F)F`, the values for the Activity in data set [1], in [2] and in [4] were -31.51%, -182 mV and -885.5 mV, respectively. For the same compound, in the data set with Escherichia coli [3], the outcome was Active.
For `COc1cc([C@@H]2c3cc4c(cc3[C@@H](O[C@@H]3O[C@@H]5CO[C@@H](C)O[C@H]5[C@H](O)[C@H]3O)[C@H]3COC(=O)[C@H]23)OCO4)cc(OC)c1O` [ETOPOSIDE], in the data set with A549 [29], the IC50 amounted to 3.9 µM.
`C[n+]1nn(-c2ccccc2)c2c1C(=O)c1ccccc1C2=O.O=S(=O)([O-])C(F)(F)F`: the Activity entry is “Dose-dependent effect” with Escherichia coli [33], -10.18% in data set [1], -163.5 mV in data set [2] and -866.5 mV in data set [4].
Regarding `COC1=C(OC)C(=O)C(C/C=C(\C)CC/C=C(\C)CC/C=C(\C)CC/C=C(\C)CC/C=C(\C)CC/C=C(\C)CC/C=C(\C)CC/C=C(\C)CC/C=C(\C)CCC=C(C)C)=C(C)C1=O` [UBIDECARENONE], the Activity in data set [34] is listed as -567 mV; in [35], -602 mV.
